In publication PMC7106896, “Synthesis and biological evaluation of 2-(4-methylsulfonyl phenyl) indole derivatives: multi-target compounds with dual antimicrobial and anti-inflammatory activities” (BMC Chemistry, 2020):
One block for each compound: values may come before it.

Key:
[1] = tested on: Acinetobacter baumannii (ATCC 19606); assay: Antimicrobial screening (CO-ADD), growth inhibition at single concentration; assay type: cell-based; conditions: ATCC19606, at 32 µg/mL concentration, read-out: growth inhibition % Ab (A. baumannii)
Procedure: (§1) The antimicrobial study was performed by CO-ADD (The Community for Antimicrobial Drug Discovery), funded by the Wellcome Trust (UK) and The University of Queensland (Australia). Evaluation of all synthesized compounds for their antimicrobial activities was done against five pathogenic bacteria, methicillin-resistant Staphylococcus aureus (ATCC 43300) as Gram-positive bacteria, Escherichia coli (ATCC 25922), Klebsiella pneumonia (ATCC 700603), Acinetobacter baumannii (ATCC 19606) and Pseudomonas aeruginosa (ATCC 27853) as Gram-negative bacteria and antifungal activity against two pathogenic fungal strains Candida albicans (ATCC 90028) and Cryptococcus neoformans var. grubii (H99; ATCC 208821) (Table 1).

[2] = tested on: methicillin-resistant Staphylococcus aureus (ATCC 43300); assay: as above; assay type: cell-based; conditions: ATCC 43300 / MRSA, at 32 µg/mL concentration, read-out: growth inhibition % Sa (MRSA)
Procedure: as §1

[3] = tested on: Candida albicans (ATCC 90028); assay: Antifungal screening (CO-ADD), growth inhibition at single concentration; assay type: cell-based; conditions: ATCC90028, at 32 µg/mL concentration, read-out: growth inhibition % Ca (C. albicans)
Procedure: as §1

[4] = target: T1, Ovine COX-1 (Ovis aries, UniProt P05979); assay: In vitro COX inhibition colorimetric assay; assay type: biochemical
T1 construct: purchased Cayman Chemical, Ann Arbor, MI, USA 760111
T1 sequence (P05979 25-600): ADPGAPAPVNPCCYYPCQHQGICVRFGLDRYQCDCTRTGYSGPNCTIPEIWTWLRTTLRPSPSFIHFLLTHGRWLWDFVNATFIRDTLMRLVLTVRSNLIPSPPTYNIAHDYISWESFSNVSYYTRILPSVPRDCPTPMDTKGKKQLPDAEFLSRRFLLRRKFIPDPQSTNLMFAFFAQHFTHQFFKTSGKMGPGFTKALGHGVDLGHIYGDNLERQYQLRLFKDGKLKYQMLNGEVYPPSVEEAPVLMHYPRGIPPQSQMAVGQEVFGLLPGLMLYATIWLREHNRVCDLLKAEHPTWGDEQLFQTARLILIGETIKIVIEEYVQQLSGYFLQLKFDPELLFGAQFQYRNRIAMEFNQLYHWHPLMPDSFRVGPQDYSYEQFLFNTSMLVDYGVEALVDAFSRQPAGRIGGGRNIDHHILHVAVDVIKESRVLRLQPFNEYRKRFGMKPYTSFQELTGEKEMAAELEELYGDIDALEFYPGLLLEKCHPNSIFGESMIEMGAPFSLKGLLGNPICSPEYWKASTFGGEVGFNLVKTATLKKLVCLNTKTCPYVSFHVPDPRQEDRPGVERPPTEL

[5] = tested on: human recombinant COX-2; assay: In vitro COX inhibition colorimetric assay; assay type: biochemical; conditions: COX-1 IC50/COX-2 IC50
[6] = tested on: carrageenan-induced rat paw edema; assay: Carrageenan-induced rat paw edema assay; assay type: in vivo; conditions: for Edema thickness (mm) ± SEM: n = 4
Procedure: Pretreatment of rats with compounds 7a–k, 8a–c, and 9a–c before injection with carrageenan in rat paw which induces inflammation and then the percentage of paw edema reduction was measured after certain hours according to previously reported procedures.

[7] = tested on: Klebsiella pneumonia (ATCC 700603); assay: Antimicrobial screening (CO-ADD), growth inhibition at single concentration; assay type: cell-based; conditions: Klebsiella pneumoniae, ATCC700603; at 32 µg/mL concentration; read-out: growth inhibition % Kp (K. pneumoniae)
Procedure: as §1

[8] = tested on: Pseudomonas aeruginosa (ATCC 27853); assay: as above; assay type: cell-based; conditions: ATCC27853, at 32 µg/mL concentration, read-out: growth inhibition % Pa (P. aeruginosa)
Procedure: as §1

Compound: Cc1ccc2[nH]c(-c3ccc(S(C)(=O)=O)cc3)c(/C=N/Nc3ccc(S(N)(=O)=O)cc3)c2c1 [Compound 7e, 4-(2-((5-Methyl-2-(4-(methylsulfonyl)phenyl)-1H-indol-3-yl)methylene) hydrazine-yl) benzenesulfonamide]
inhibition at 32 µg/mL [1]: 43.6%
inhibition at 32 µg/mL [2]: 7.58%
inhibition at 32 µg/mL [3]: 28.7%
IC50 [4]: 9.7 µM
Selectivity index (SI) [5]: 31.29
Edema inhibition % ([6]; 1 h): 53.9%
Edema thickness (mm) ± SEM ([6]; 1 h): 1.209 ± 0.11 mm
Edema inhibition % ([6]; 3 h): 71.1%
Edema thickness (mm) ± SEM ([6]; 3 h): 0.645 ± 0.01 mm
Edema inhibition % ([6]; 6 h): 79.9%
Edema thickness (mm) ± SEM ([6]; 6 h): 0.381 ± 0.007 mm
melting point: 186 to 188 °C

Compound: CS(=O)(=O)c1ccc(-c2[nH]c3ccc(F)cc3c2C=NNc2ccc(F)cc2)cc1 [Compound 7j, 5-Fluoro-3-((2-(4-fluorophenyl)hydrazono)methyl)-2-(4-(methylsulfonyl)phenyl)-1H-indole]
inhibition at 32 µg/mL [1]: 46.2%
inhibition at 32 µg/mL [7]: 12.3%
inhibition at 32 µg/mL [2]: 30.6%
inhibition at 32 µg/mL [3]: 1.91%
IC50 [4]: 10.8 µM
Selectivity index (SI) [5]: 98.18
Edema inhibition % ([6]; 1 h): 64.3%
Edema thickness (mm) ± SEM ([6]; 1 h): 0.936 ± 0.064 mm
Edema inhibition % ([6]; 3 h): 78.6%
Edema thickness (mm) ± SEM ([6]; 3 h): 0.477 ± 0.027 mm
Edema inhibition % ([6]; 6 h): 71%
Edema thickness (mm) ± SEM ([6]; 6 h): 0.549 ± 0.013 mm
melting point: 200 to 202 °C

Compound: CS(=O)(=O)c1ccc(NN=Cc2c(-c3ccc(S(C)(=O)=O)cc3)[nH]c3ccccc23)cc1 [Compound 7b, 2-(4-(Methylsulfonyl)phenyl)-3-((2-(4-(methylsulfonyl)phenyl)hydrazono)methyl)-1H-indole]
inhibition at 32 µg/mL [1]: 35.5%
inhibition at 32 µg/mL [8]: 3.8%
inhibition at 32 µg/mL [2]: 25.6%
inhibition at 32 µg/mL [3]: 9.55%
IC50 [4]: 12.4 µM
Selectivity index (SI) [5]: 124.10
Edema inhibition % ([6]; 1 h): 76.1%
Edema thickness (mm) ± SEM ([6]; 1 h): 0.627 ± 0.045 mm
Edema inhibition % ([6]; 3 h): 91.2%
Edema thickness (mm) ± SEM ([6]; 3 h): 0.196 ± 0.017 mm
Edema inhibition % ([6]; 6 h): 93.5%
Edema thickness (mm) ± SEM ([6]; 6 h): 0.123 ± 0.009 mm
melting point: 228 to 230 °C

Compound: Cc1ccc(-c2cc(C(F)(F)F)nn2-c2ccc(S(N)(=O)=O)cc2)cc1 [Celecoxib, celecoxib, reference compound]
Edema inhibition % ([6]; 1 h): 68.9%
Edema thickness (mm) ± SEM ([6]; 1 h): 0.810 ± 0.074 mm
Edema inhibition % ([6]; 3 h): 95.5%
Edema thickness (mm) ± SEM ([6]; 3 h): 0.100 ± 0.009 mm
Edema inhibition % ([6]; 6 h): 94.7%
Edema thickness (mm) ± SEM ([6]; 6 h): 0.100 ± 0.005 mm

Compound: COc1ccc2c(c1)c(CC(=O)O)c(C)n2C(=O)c1ccc(Cl)cc1 [Indomethacin, indomethacin, reference compound]
Edema inhibition % ([6]; 1 h): 70.7%
Edema thickness (mm) ± SEM ([6]; 1 h): 0.768 ± 0.050 mm
Edema inhibition % ([6]; 3 h): 96%
Edema thickness (mm) ± SEM ([6]; 3 h): 0.075 ± 0.007 mm
Edema inhibition % ([6]; 6 h): 96.6%
Edema thickness (mm) ± SEM ([6]; 6 h): 0.075 ± 0.004 mm

Compound: Cc1ccc2[nH]c(-c3ccc(S(C)(=O)=O)cc3)c(C=NNc3ccc(F)cc3)c2c1 [Compound 7f, 3-((2-(4-Fluorophenyl)hydrazono)methyl)-5-methyl-2-(4-(methylsulfonyl)phenyl)-1H-indole]
inhibition at 32 µg/mL [1]: 66.7%
inhibition at 32 µg/mL [7]: 8.05%
inhibition at 32 µg/mL [2]: 8.33%
inhibition at 32 µg/mL [3]: 3.5%
IC50 [4]: 9.73 µM
Selectivity index (SI) [5]: 57.23
Edema inhibition % ([6]; 1 h): 60.5%
Edema thickness (mm) ± SEM ([6]; 1 h): 1.036 ± 0.009 mm
Edema inhibition % ([6]; 3 h): 72.7%
Edema thickness (mm) ± SEM ([6]; 3 h): 0.609 ± 0.03 mm
Edema inhibition % ([6]; 6 h): 79.2%
Edema thickness (mm) ± SEM ([6]; 6 h): 0.394 ± 0.01 mm
melting point: 159 to 161 °C

Compound: Cc1ccc2[nH]c(-c3ccc(S(C)(=O)=O)cc3)c(/C=N/Nc3ccc(S(C)(=O)=O)cc3)c2c1 [Compound 7d, 5-Methyl-2-(4-(methylsulfonyl)phenyl)-3-((2-(4-(methylsulfonyl)phenyl) hydraz-ono)methyl)-1H-indole]
inhibition at 32 µg/mL [1]: 35%
inhibition at 32 µg/mL [7]: 4.86%
inhibition at 32 µg/mL [2]: 15.6%
inhibition at 32 µg/mL [3]: 2.54%
IC50 [4]: 10.4 µM
Selectivity index (SI) [5]: 69.33
Edema inhibition % ([6]; 1 h): 51.6%
Edema thickness (mm) ± SEM ([6]; 1 h): 1.270 ± 0.015 mm
Edema inhibition % ([6]; 3 h): 77.5%
Edema thickness (mm) ± SEM ([6]; 3 h): 0.502 ± 0.044 mm
Edema inhibition % ([6]; 6 h): 78.6%
Edema thickness (mm) ± SEM ([6]; 6 h): 0.405 ± 0.018 mm
melting point: 262 to 264 °C

Further lines, with some results ahead:

IC50 [4]: 10.6 µM
melting point: 210 to 212 °C
Compound: CS(=O)(=O)c1ccc(-c2[nH]c3ccccc3c2-c2nc3cc(Cl)ccc3[nH]2)cc1 [Compound 8a, 5-Chloro-2-(2-(4-(methylsulfonyl)phenyl)-1H-indol-3-yl)-1H-benzo[d]imidazole]
inhibition at 32 µg/mL [2]: 13.6%
inhibition at 32 µg/mL [3]: 7.71%
Selectivity index (SI) [5]: 81.84
Edema inhibition % ([6]; 1 h): 52.5%
Edema thickness (mm) ± SEM ([6]; 1 h): 1.246 ± 0.076 mm
Edema inhibition % ([6]; 3 h): 58%
Edema thickness (mm) ± SEM ([6]; 3 h): 0.937 ± 0.046 mm
Edema inhibition % ([6]; 6 h): 56.4%
Edema thickness (mm) ± SEM ([6]; 6 h): 0.826 ± 0.078 mm

IC50 [4]: 11.2 µM
melting point: 217 to 219 °C
Compound: Cc1ccc2[nH]c(-c3ccc(S(C)(=O)=O)cc3)c(-c3nc4cc(Cl)ccc4[nH]3)c2c1 [Compound 8c, 5-Chloro-2-(5-methyl-2-(4-(methylsulfonyl)phenyl)-1H-indol-3-yl)-1H-benzo[d]imidazole]
inhibition at 32 µg/mL [2]: 4.62%
inhibition at 32 µg/mL [3]: 1.65%
Selectivity index (SI) [5]: 93.58
Edema inhibition % ([6]; 1 h): 67.9%
Edema thickness (mm) ± SEM ([6]; 1 h): 0.842 ± 0.062 mm
Edema inhibition % ([6]; 3 h): 71.9%
Edema thickness (mm) ± SEM ([6]; 3 h): 0.627 ± 0.05 mm
Edema inhibition % ([6]; 6 h): 74.2%
Edema thickness (mm) ± SEM ([6]; 6 h): 0.489 ± 0.032 mm

IC50 [4]: 8.24 µM
melting point: 212 to 214 °C
Compound: Cc1ccc2[nH]c(-c3ccc(S(C)(=O)=O)cc3)c(C=NO)c2c1 [Compound 9c, 5-Methyl-2-(4-(methylsulfonyl)phenyl)-1H-indole-3-carbaldehyde oxime]
inhibition at 32 µg/mL [1]: 33.7%
inhibition at 32 µg/mL [7]: 1.19%
inhibition at 32 µg/mL [3]: 4.88%
Selectivity index (SI) [5]: 34.33
Edema inhibition % ([6]; 1 h): 55.2%
Edema inhibition % ([6]; 3 h): 68.6%
Edema thickness (mm) ± SEM ([6]; 3 h): 0.435 ± 0.033 mm
Edema inhibition % ([6]; 6 h): 61.7%
Edema thickness (mm) ± SEM ([6]; 6 h): 0.504 ± 0.009 mm

IC50 [4]: 10.6 µM
melting point: 199 to 201 °C
Compound: CS(=O)(=O)c1ccc(-c2[nH]c3ccccc3c2C=NO)cc1 [Compound 9a, 2-(4-(Methylsulfonyl)phenyl)-1H-indole-3-carbaldehyde oxime]
inhibition at 32 µg/mL [1]: 42.1%
inhibition at 32 µg/mL [7]: 14.8%
inhibition at 32 µg/mL [8]: 2.49%
inhibition at 32 µg/mL [3]: 9.15%
Selectivity index (SI) [5]: 81.84
Edema inhibition % ([6]; 1 h): 77.2%
Edema thickness (mm) ± SEM ([6]; 1 h): 0.598 ± 0.050 mm
Edema inhibition % ([6]; 3 h): 61.8%
Edema thickness (mm) ± SEM ([6]; 3 h): 0.852 ± 0.073 mm
Edema inhibition % ([6]; 6 h): 62.3%
Edema thickness (mm) ± SEM ([6]; 6 h): 0.714 ± 0.052 mm
